Reference: PMC12396409, “Screening and hit evaluation of a microbial metabolite library against the pathogenic Plasmodium falciparum and Toxoplasma gondii parasites” (International Journal for Parasitology: Drugs and Drug …, 2025)
Like-named read-outs stand apart in the source and are kept apart here. *1 amine or outer side, *2 acyl side, *3 side chain or, on linkers, in order; H or OH if unused. Where a SMILES comes first, the peptide text is derived from it. Bridges are numbered along the chain shown (N, C = ends). [ ]: non-standard residue; d: D form. The star is where a group is joined. hTyr(3S-OH,4S-OH,3'-OSO3H) = N[C@H](C(=O)O)[C@H](O)[C@@H](O)c1ccc(O)c(OS(=O)(=O)O)c1; Orn(4R-OH,5R-OH) = O=C([C@H](C[C@@H](O)[C@@H](O)N[*:3])N[*:1])[*:2]; Pro(3S-OH,4S-Me) = C[C@H]1CN[C@H](C(=O)O)[C@H]1O; Gln(3R-OH) = NC(=O)C[C@@H](O)[C@H](N)C(=O)O; Palmitoyl = CCCCCCCCCCCCCCCC(=O)*; Hyp = O=C(O)[C@@H]1C[C@@H](O)CN1

What was measured:
[1] = system: P. falciparum 3D7 parasites; test: P. falciparum growth inhibition assay, 1-cycle (72 h treatment), SYBR DNA staining (library screen at 2 μg/mL and dose-response); assay type: cell-based, Plasmodium falciparum
[2] = system: T. gondii RH strain (RH-Tub-eYFP) tachyzoites; test: microbe, parasite or virus in culture; assay type: cell-based, Toxoplasma gondii; conditions: 72 h, % growth; for percent parasite growth at 2 µg/mL: Toxoplasma gondii
[3] = system: P. falciparum 3D7 parasites; test: P. falciparum growth inhibition assay, 2-cycle (120 h treatment), delayed-death screen and dose-response; assay type: cell-based, Plasmodium falciparum
[4] = library screen at 2 μg/mL, 72 h, % growth, replicate 1
[5] = library screen at 2 μg/mL, 72 h, % growth, replicate 2
[6] = library screen at 2 μg/mL, replicate 1
[7] = library screen at 2 μg/mL, replicate 2
[8] = library screen at 2 μg/mL, 120 h, % growth, replicate 1
[9] = library screen at 2 μg/mL, 120 h, % growth, replicate 2

CN(C)c1ccc(O)c2c1C[C@H]1C[C@H]3[C@H](N(C)C)C(O)=C(C(N)=O)C(=O)[C@@]3(O)C(O)=C1C2=O.Cl [BIA-M1472]
Pf_72h_%Growth_Rep1 ([1]; P. falciparum 3D7, 72 h, parasite screen at 2 μg/mL, % growth, replicate 1): 19.15% | Pf_72h_%Growth_Rep2 ([1]; P. falciparum 3D7, 72 h, parasite screen at 2 μg/mL, % growth, replicate 2): 16.74% | Tg_72h_%Growth_Rep1 ([2]; T. gondii, parasite screen at 2 μg/mL, replicate 1): 5.81% | Tg_72h_%Growth_Rep2 ([2]; T. gondii, parasite screen at 2 μg/mL, replicate 2): 37.51% | Pf_120h_%Growth_Rep1 ([3]; P. falciparum 3D7, 120 h, parasite screen at 2 μg/mL, % growth, replicate 1): 1.23% | Pf_120h_%Growth_Rep2 ([3]; P. falciparum 3D7, 120 h, parasite screen at 2 μg/mL, % growth, replicate 2): 73.75%

CO[C@H]1C[C@H](O[C@@H]2/C(C)=C/C[C@@H]3C[C@@H](C[C@]4(C=C[C@H](C)[C@@H](C5CCCCC5)O4)O3)OC(=O)[C@@H]3C=C(C)[C@@H](O)[C@H]4OC/C(=C\C=C\[C@@H]2C)[C@]43O)O[C@@H](C)[C@@H]1O [Doramectin monosaccharide]
Pf_72h_%Growth_Rep1 [1, 4]: 77.72% | Pf_72h_%Growth_Rep2 [1, 5]: 82.97% | Tg_72h_%Growth_Rep1 [2, 6]: 100.60% | Tg_72h_%Growth_Rep2 [2, 7]: 107.16% | Pf_120h_%Growth_Rep1 [3, 8]: 94.58% | Pf_120h_%Growth_Rep2 [3, 9]: 82.00%

CO[C@@H]1[C@@H](O[C@@H]2O[C@H](C)[C@@H](O[C@H]3C[C@@](C)(O)[C@@H](O)[C@H](C)O3)[C@H](N(C)C)[C@H]2O)[C@@H](CC=O)C[C@@H](C)[C@@H](O[C@H]2CC[C@H](N(C)C)[C@@H](C)O2)/C=C/C=C/C[C@@H](C)OC(=O)C[C@H]1O [Spiramycin I, reference compound]
1) Growth (%) at 72 h ([1]; P. falciparum, 2 μg/mL, 72 h): 71.72% | Pf_72h_%Growth_Rep1 ([1]; P. falciparum, 72 h, parasite screen 2 μg/mL, % growth, replicate 1): 60.09% | Pf_72h_%Growth_Rep2 ([1]; P. falciparum, 72 h, parasite screen 2 μg/mL, % growth, replicate 2): 83.34% | Tg_72h_%Growth_Rep1 ([2]; T. gondii, parasite screen 2 μg/mL, replicate 1): 20.85% | Tg_72h_%Growth_Rep2 ([2]; T. gondii, parasite screen 2 μg/mL, replicate 2): 24.90% | 2) Growth (%) at 120 h ([3]; P. falciparum, 2 μg/mL, 120 h): 11.98% | Pf_120h_%Growth_Rep1 ([3]; P. falciparum, 120 h, parasite screen 2 μg/mL, % growth, replicate 1): 15.80% | Pf_120h_%Growth_Rep2 ([3]; P. falciparum, 120 h, parasite screen 2 μg/mL, % growth, replicate 2): 8.16% | 3) Fold change (72 h/120 h) ([3]; P. falciparum, growth at 72 h / growth at 120 h, 2 μg/mL): 6.0

Cc1cc(O)c2c(c1)C(=O)c1c(c(O)cc(O)c1-c1c(O)cc(O)c3c1C(=O)c1cc(C)cc(O)c1C3=O)C2=O [Skyrin]
activity at 2 µg/mL ([1]; Plasmodium falciparum, 3D7, P. falciparum, 72 h, parasite screen 2 μg/mL, % growth, replicate 1, read-out: Pf_72h_%Growth_Rep1): 80.4% | activity at 2 µg/mL ([1]; Plasmodium falciparum, 3D7, P. falciparum, 72 h, parasite screen 2 μg/mL, % growth, replicate 2, read-out: Pf_72h_%Growth_Rep2): 120% | percent parasite growth at 2 µg/mL ([2]; T. gondii, parasite screen 2 μg/mL, replicate 1, read-out: Tg_72h_%Growth_Rep1): 114% | percent parasite growth at 2 µg/mL ([2]; T. gondii, parasite screen 2 μg/mL, replicate 2, read-out: Tg_72h_%Growth_Rep2): 84.9% | activity at 2 µg/mL ([3]; Plasmodium falciparum, 3D7, P. falciparum, 120 h, parasite screen 2 μg/mL, % growth, replicate 1, read-out: Pf_120h_%Growth_Rep1): 75.2% | activity at 2 µg/mL ([3]; Plasmodium falciparum, 3D7, P. falciparum, 120 h, parasite screen 2 μg/mL, % growth, replicate 2, read-out: Pf_120h_%Growth_Rep2): 137%

CCCCCCCCCCCCCCCC(=O)N[C@H]1C[C@@H](O)[C@@H](O)NC(=O)[C@@H]2[C@@H](O)[C@@H](C)CN2C(=O)[C@H]([C@H](O)CC(N)=O)NC(=O)[C@H]([C@H](O)[C@@H](O)c2ccc(O)c(OS(=O)(=O)O)c2)NC(=O)[C@@H]2C[C@@H](O)CN2C(=O)[C@H]([C@@H](C)O)NC1=O [FR 901379] (Palmitoyl-[Orn(4R-OH,5R-OH)]T[Hyp][hTyr(3S-OH,4S-OH,3'-OSO3H)][Gln(3R-OH)][Pro(3S-OH,4S-Me)]; lactam 1-C)
Pf_72h_%Growth_Rep1 [1, 4]: 84.19% | Pf_72h_%Growth_Rep2 [1, 5]: 83.86% | Tg_72h_%Growth_Rep1 [2, 6]: 119.40% | Tg_72h_%Growth_Rep2 [2, 7]: 105.49% | Pf_120h_%Growth_Rep1 [3, 8]: 96.37% | Pf_120h_%Growth_Rep2 [3, 9]: 99.58%

CS(=O)(=O)c1ccc([C@@H](O)[C@@H](CF)NC(=O)C(Cl)Cl)cc1 [Florfenicol, reference compound]
activity at 2 µg/mL ([1]; Plasmodium falciparum, 3D7, 72 h, P. falciparum, 2 μg/mL, 72 h; read-out: 1) Growth (%) at 72 h): 62.4% | activity at 2 µg/mL ([1]; Plasmodium falciparum, 3D7, 72 h, library screen at 2 μg/mL, 72 h, % growth, replicate 1, read-out: Pf_72h_%Growth_Rep1): 69.7% | activity at 2 µg/mL ([1]; Plasmodium falciparum, 3D7, 72 h, library screen at 2 μg/mL, 72 h, % growth, replicate 2, read-out: Pf_72h_%Growth_Rep2): 55.2% | percent parasite growth at 2 µg/mL ([2]; library screen at 2 μg/mL, replicate 1, read-out: Tg_72h_%Growth_Rep1): 47.1% | percent parasite growth at 2 µg/mL ([2]; library screen at 2 μg/mL, replicate 2, read-out: Tg_72h_%Growth_Rep2): 48.9% | 3) Fold change (72 h/120 h) [3]: 5.8 | activity at 2 µg/mL ([3]; Plasmodium falciparum, 3D7, 120 h, P. falciparum, 2 μg/mL, 120 h; read-out: 2) Growth (%) at 120 h): 10.8% | activity at 2 µg/mL ([3]; Plasmodium falciparum, 3D7, 120 h, library screen at 2 μg/mL, 120 h, % growth, replicate 1, read-out: Pf_120h_%Growth_Rep1): 12.9% | activity at 2 µg/mL ([3]; Plasmodium falciparum, 3D7, 120 h, library screen at 2 μg/mL, 120 h, % growth, replicate 2, read-out: Pf_120h_%Growth_Rep2): 8.65%

Cc1cc(O)c(O)c2oc(=O)c3c(O)cc(O)cc3c12 [BIA-H1558]
Pf_72h_%Growth_Rep1 ([1]; P. falciparum 3D7, 72 h, library screen at 2 μg/mL, % growth, replicate 1): 87.28% | Pf_72h_%Growth_Rep2 ([1]; P. falciparum 3D7, 72 h, library screen at 2 μg/mL, % growth, replicate 2): 114.26% | Tg_72h_%Growth_Rep1 ([2]; T. gondii RH, library screen at 2 μg/mL, replicate 1): 100.18% | Tg_72h_%Growth_Rep2 ([2]; T. gondii RH, library screen at 2 μg/mL, replicate 2): 87.83% | Pf_120h_%Growth_Rep1 ([3]; P. falciparum 3D7, 120 h, library screen at 2 μg/mL, % growth, replicate 1): 93.99% | Pf_120h_%Growth_Rep2 ([3]; P. falciparum 3D7, 120 h, library screen at 2 μg/mL, % growth, replicate 2): 107.81%
